# Key:
# Assay in all cases: relative viability (nuclei count vs DMSO), 5 days (fraction); higher = more cells survive
# [1] = tested on: NCI-H596
# In short: (§1)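 Lung cancer cell lines were seeded in 1536-well plates and dosed by pin tool the next day, with either a single drug or a fixed anchor-drug dose combined with five library-drug doses (not always all listed) spaced in √10 steps. Five days later, one step fixed the cells and stained their nuclei (final 0.05% Triton X-100, 1% formaldehyde, 1 ug/ml Hoechst), and nuclei were counted on 4× images. Relative viability is the nuclei count in treated wells divided by the count in vehicle wells, and each value is the median of duplicate plates.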
# [2] = tested on: NCI-H1666
# In short: as §1
# [3] = tested on: NCI-H23
# In short: as §1
# [4] = tested on: NCI-H1944
# In short: as §1
# [5] = tested on: NCI-H727
# In short: as §1
# [6] = tested on: NCI-H322M
# In short: as §1
# [7] = tested on: 201T
# In short: as §1
# [8] = tested on: SW 1573
# In short: as §1
# [9] = tested on: NCI-H460
# In short: as §1
# [10] = tested on: NCI-H2009
# In short: as §1
# [11] = tested on: NCI-H2087
# In short: as §1
# [12] = tested on: HOP-62
# In short: as §1
# [13] = tested on: LC-2-ad
# In short: as §1
# [14] = tested on: NCI-H1651
# In short: as §1
# [15] = tested on: ChaGo-K-1
# In short: as §1
# [16] = tested on: COR-L23
# In short: as §1
# [17] = tested on: NCI-H2126
# In short: as §1
# [18] = tested on: PC-3 [JPC-3]
# In short: as §1
# [19] = tested on: NCI-H1355
# In short: as §1
# [20] = tested on: CAL-12T
# In short: as §1
smiles,measurement,setting,value
C=C1C(=O)O[C@@H](CCCCCCCC)[C@@H]1C(=O)O [C-75] + CC1(C)CCC(c2ccc(Cl)cc2)=C(CN2CCN(c3ccc(C(=O)NS(=O)(=O)c4ccc(N[C@H](CCN5CCOCC5)CSc5ccccc5)c(S(=O)(=O)C(F)(F)F)c4)cc3)CC2)C1 [Navitoclax] (partner 0.5 µM),relative viability,[1]; first compound 0.08 µM,0.961
same,relative viability,[1]; first compound 0.253 µM,1.16
same,relative viability,[1]; first compound 0.8 µM,0.901
same,relative viability,[1]; first compound 2.53 µM,0.771
same,relative viability,[1]; first compound 8 µM,0.897
same,relative viability,[2]; first compound 0.08 µM,0.94
same,relative viability,[2]; first compound 0.253 µM,1.19
same,relative viability,[2]; first compound 0.8 µM,0.742
same,relative viability,[2]; first compound 2.53 µM,0.891
same,relative viability,[2]; first compound 8 µM,0.567
same,relative viability,[3]; first compound 0.08 µM,0.801
same,relative viability,[3]; first compound 0.253 µM,1.01
same,relative viability,[3]; first compound 0.8 µM,0.666
same,relative viability,[3]; first compound 2.53 µM,0.672
same,relative viability,[3]; first compound 8 µM,0.717
same,relative viability,[4]; first compound 0.08 µM,1.03
same,relative viability,[4]; first compound 0.253 µM,0.896
same,relative viability,[4]; first compound 0.8 µM,1.01
same,relative viability,[4]; first compound 8 µM,0.998
same,relative viability,[5]; first compound 0.08 µM,0.464
same,relative viability,[5]; first compound 0.253 µM,0.62
same,relative viability,[5]; first compound 0.8 µM,0.436
same,relative viability,[5]; first compound 2.53 µM,0.377
same,relative viability,[5]; first compound 8 µM,0.319
same,relative viability,[6]; first compound 0.08 µM,1.18
same,relative viability,[6]; first compound 0.253 µM,1.54
same,relative viability,[6]; first compound 0.8 µM,1.28
same,relative viability,[6]; first compound 2.53 µM,1.12
same,relative viability,[6]; first compound 8 µM,1.29
same,relative viability,[7]; first compound 0.08 µM,1.23
same,relative viability,[7]; first compound 0.253 µM,1.27
same,relative viability,[7]; first compound 0.8 µM,1.23
same,relative viability,[7]; first compound 2.53 µM,1.17
same,relative viability,[7]; first compound 8 µM,1.21
same,relative viability,[8]; first compound 0.08 µM,1.01
same,relative viability,[8]; first compound 0.253 µM,0.969
same,relative viability,[8]; first compound 0.8 µM,1.21
same,relative viability,[8]; first compound 2.53 µM,1.06
same,relative viability,[8]; first compound 8 µM,0.875
same,relative viability,[9]; first compound 0.08 µM,1.14
same,relative viability,[9]; first compound 0.253 µM,1.23
same,relative viability,[9]; first compound 0.8 µM,1.04
same,relative viability,[9]; first compound 8 µM,1.08
same,relative viability,[10]; first compound 0.08 µM,1.16
same,relative viability,[10]; first compound 0.253 µM,1.08
same,relative viability,[10]; first compound 0.8 µM,1.1
same,relative viability,[10]; first compound 2.53 µM,0.971
same,relative viability,[10]; first compound 8 µM,0.946
same,relative viability,[11]; first compound 0.08 µM,1.02
same,relative viability,[11]; first compound 0.253 µM,1.05
same,relative viability,[11]; first compound 0.8 µM,0.934
same,relative viability,[11]; first compound 2.53 µM,0.927
same,relative viability,[11]; first compound 8 µM,0.87
same,relative viability,[12]; first compound 0.08 µM,1.02
same,relative viability,[12]; first compound 0.253 µM,1.25
same,relative viability,[12]; first compound 0.8 µM,1.04
same,relative viability,[12]; first compound 2.53 µM,0.889
same,relative viability,[12]; first compound 8 µM,0.857
same,relative viability,[13]; first compound 0.08 µM,0.53
same,relative viability,[13]; first compound 0.253 µM,0.56
same,relative viability,[13]; first compound 0.8 µM,0.479
same,relative viability,[13]; first compound 8 µM,0.474
same,relative viability,[14]; first compound 0.08 µM,1.07
same,relative viability,[14]; first compound 0.253 µM,1.11
same,relative viability,[14]; first compound 0.8 µM,0.955
same,relative viability,[14]; first compound 2.53 µM,0.885
same,relative viability,[14]; first compound 8 µM,0.901
same,relative viability,[15]; first compound 0.08 µM,0.971
same,relative viability,[15]; first compound 0.253 µM,0.953
same,relative viability,[15]; first compound 0.8 µM,0.833
same,relative viability,[15]; first compound 2.53 µM,0.747
same,relative viability,[15]; first compound 8 µM,0.956
same,relative viability,[16]; first compound 0.08 µM,0.966
same,relative viability,[16]; first compound 0.253 µM,0.884
same,relative viability,[16]; first compound 0.8 µM,0.955
same,relative viability,[16]; first compound 2.53 µM,0.989
same,relative viability,[16]; first compound 8 µM,0.964
same,relative viability,[17]; first compound 0.08 µM,0.869
same,relative viability,[17]; first compound 0.253 µM,0.902
same,relative viability,[17]; first compound 0.8 µM,0.871
same,relative viability,[17]; first compound 2.53 µM,0.718
same,relative viability,[17]; first compound 8 µM,0.818
same,relative viability,[18]; first compound 0.08 µM,0.853
same,relative viability,[18]; first compound 0.253 µM,0.841
same,relative viability,[18]; first compound 0.8 µM,0.841
same,relative viability,[18]; first compound 2.53 µM,0.826
same,relative viability,[18]; first compound 8 µM,0.874
same,relative viability,[19]; first compound 0.08 µM,0.951
same,relative viability,[19]; first compound 0.253 µM,0.894
same,relative viability,[19]; first compound 0.8 µM,0.867
same,relative viability,[19]; first compound 2.53 µM,0.952
same,relative viability,[19]; first compound 8 µM,0.956
same,relative viability,[20]; first compound 0.08 µM,1.47
same,relative viability,[20]; first compound 0.253 µM,1.44
same,relative viability,[20]; first compound 0.8 µM,1.17
same,relative viability,[20]; first compound 8 µM,1.08

# Reference: the supplement of paper PMC10307832
